According to patent US20240368174A1, “Antiviral Heterocyclic Compounds” (Enanta Pharmaceuticals, Inc., priority 2023, published 2024):

These molecules were tested on HMPV clinical isolate A2 strain TN 94-49 (assay: HMPV antiviral assay, Method 2 (LLC-MK2 cells with CP-100-356, ATP-Lite)). Conditions: human metapneumovirus; hMPV A2 TN/94-49, LLC-MK2 cells with CP-100-356, Method 2.
Format: cell-based
Summary of the method: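 LLC-MK2 rhesus kidney cells (5,000/well) infected in suspension with HMPV A2 TN 94-49 at MOI 0.16, in serum-free medium with final 2 μg/mL TPCK-trypsin and 2 μM CP-100-356. Compounds tested in duplicate from 200 nM, 2.5-fold, 10 points; 7 days at 37 °C. Cell health by ATP-Lite luminescence; EC50 by four-parameter fit.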
For `COc1cc(C(=O)NCC(O)(c2cc3c(c(-c4cc(Cl)c(F)cc4F)n2)OC[C@]3(C)C(N)=O)c2ccc(C)s2)cc2cn(C3CC3)nc12` (some centres unmarked) [Example 470], the EC50 was < 200 nM.
For `COc1cc(C(=O)NC[C@@](O)(c2ccccc2)c2cc3c(c(-c4cc(F)c(F)cc4F)n2)OC[C@]3(C)C(N)=O)cc2cn(C3(F)CC3)nc12` [Example 170], the EC50 was < 200 nM.
For `COc1cc(C(=O)NC[C@](O)(c2cc3c(c(-c4ccc5c(c4)OC(F)(F)O5)n2)OC[C@]3(C)C(N)=O)C2CC2)cc2cc(C)c(F)nc12` [Example 22], the EC50 was < 200 nM.
For `COc1cc(C(=O)NC[C@@](O)(c2ccccc2)c2cc3c(c(-c4ccc5c(c4)OC(F)(F)O5)n2)OC[C@]3(C)C(N)=O)cc2cn(C3CC3)nc12` [Example 18], the EC50 was < 200 nM.
In the case of `COc1cc(C(=O)NC[C@@](O)(c2ccccc2)c2cc3c(c(-c4cc(C(F)(F)F)ccc4F)n2)OC[C@]3(C)C(N)=O)cc2cn(C3CC3)nc12` [Example 147], the EC50 is reported as < 200 nM.
With `COc1cc(C(=O)NC[C@@](O)(c2ccccc2)c2cc3c(c(-c4cc(Cl)c(F)cc4F)n2)OC[C@]3(C)C(N)=O)cc2cc(Cl)cnc12` [Example 187] the EC50 was < 200 nM.
In the case of `COc1cc(C(=O)NC[C@](O)(c2cc3c(c(-c4cc(Cl)c(F)cc4F)n2)OC[C@]3(C)C(N)=O)C2CC2)cn2cc(C3CC3)nc12` [Example 77], the EC50 is reported as < 200 nM.
For `COc1cc(C(=O)NC[C@@](O)(c2ccccc2)c2cc3c(c(-c4cc(F)c(F)cc4F)n2)OC[C@]3(C)C(N)=O)cc2cn(C(F)F)nc12` [Example 172], the EC50 was < 200 nM.
With `COc1cc(C(=O)NC[C@@](O)(c2cccnc2)c2cc3c(c(-c4cc(Cl)c(F)cc4F)n2)OC[C@]3(C)C(N)=O)cc2cn(C3CC3)nc12` [Example 131] the EC50 was < 200 nM.
In the case of `COc1cc(C(=O)NC[C@@](O)(c2cccc(F)c2)c2cc3c(c(-c4cc(Cl)c(F)cc4F)n2)OC[C@]3(C)C(N)=O)cc2cn(C3CC3)nc12` [Example 132], the EC50 is reported as < 200 nM.
`COc1cc(C(=O)NC[C@](O)(c2cc3c(c(-c4ccc(F)c(Cl)c4Cl)n2)OC[C@]3(C)C(N)=O)C(F)(F)F)cc2cn(C(F)F)nc12` [Example 66] was tested, and the EC50 was < 200 nM.
With `COc1cc(C(=O)NC[C@@](O)(c2cccc(F)c2)c2cc3c(c(-c4cccc(Cl)c4Cl)n2)OC[C@]3(C)C(N)=O)cc2oc(C3CC3)nc12` [Example 292] the EC50 was < 200 nM.
With `COc1cc(C(=O)NC[C@@](O)(c2cccc(F)c2)c2cc3c(c(-c4cccc(Cl)c4Cl)n2)OC[C@]3(C)C(N)=O)cc2oc(C)nc12` [Example 293] the EC50 was < 200 nM.
For `C[C@@H](O)COc1cc(C(=O)NC[C@](O)(c2cc3c(c(-c4ccc(F)c(Cl)c4F)n2)OC[C@]3(C)C(N)=O)C2CC2)cc2cn(C3CC3)nc12` [Example 38], the EC50 was < 200 nM.
In the case of `COc1cc(C(=O)NC[C@@](O)(c2cccc(F)c2)c2cc3c(c(-c4cc(C(F)(F)F)c(F)cc4F)n2)OC[C@]3(C)C(N)=O)cc2cn(C3(F)CC3)nc12` [Example 296], the EC50 is reported as < 200 nM.
With `COc1cc(C(=O)NC[C@@](O)(c2cccc(F)c2)c2cc3c(c(-c4cc(C(F)(F)F)c(F)cc4F)n2)OC[C@]3(C)C(N)=O)cc2cn(C3CC3)nc12` [Example 295] the EC50 was < 200 nM.
`COc1cc(C(=O)NC[C@@](O)(c2ccccc2)c2cc3c(c(-c4ccc(F)c(Cl)c4Cl)n2)OC[C@]3(C)C(N)=O)cc2cn(C(F)F)nc12` [Example 258] was tested, and the EC50 was < 200 nM.
With `COc1cc(C(=O)NC[C@@](O)(c2cccc(F)c2)c2cc3c(c(-c4ccc5c(c4Cl)OC(F)(F)O5)n2)OC[C@]3(C)C(N)=O)cc2cn(C(F)F)nc12` [Example 276] the EC50 was < 200 nM.
`COc1cc(C(=O)NC[C@@](O)(c2cccc(F)c2)c2cc3c(c(-c4cc(C(F)(F)F)c(F)cc4F)n2)OC[C@]3(C)C(N)=O)cc2oc(C3CC3)nc12` [Example 297] was tested, and the EC50 was < 200 nM.
In the case of `C[C@]1(C(N)=O)COc2c1cc([C@@](O)(CNC(=O)c1cc(OC3CC3)c3nn(C(F)F)cc3c1)C1CC(F)(F)C1)nc2-c1cc(F)c(F)cc1F` [Example 34], the EC50 is reported as < 200 nM.
`COc1cc(C(=O)NC[C@](O)(c2cc3c(c(-c4ccc(F)c(Cl)c4Cl)n2)OC[C@]3(C)C(N)=O)C(F)(F)F)cc2cn(C3CC3)nc12` [Example 65] was tested, and the EC50 was < 200 nM.
For `COc1cc(C(=O)NC[C@@](O)(c2ccc(F)cc2)c2cc3c(c(-c4ccc5c(c4Cl)OC(F)(F)O5)n2)OC[C@]3(C)C(N)=O)cc2cn(C3(F)CC3)nc12` [Example 263], the EC50 was < 200 nM.

These molecules were tested on HMPV clinical isolate A2 strain TN 94-49 (assay: HMPV antiviral assay, Method 1 (LLC-MK2 cells, ATP-Lite)). Conditions: human metapneumovirus, hMPV A2 TN/94-49, LLC-MK2 cells.
Format: cell-based
Summary of the method: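 LLC-MK2 cells (5,000/well) infected in suspension with HMPV A2 TN 94-49 at MOI 0.005 in serum-free OptiMEM with 2 μg/mL final TPCK-trypsin, compounds in duplicate from 2 μM top, 2.5-fold, 10 points. After 7 days at 37° C, cell health by ATP-Lite luminescence normalised to virus and cell controls; EC50 from four-parameter fit.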
`COc1cc(C(=O)NCC(O)(c2cc3c(c(-c4cc(Cl)c(F)cc4F)n2)OC[C@]3(C)C(N)=O)c2ccc(C)s2)cc2cn(C3CC3)nc12` (some centres unmarked) [Example 470] was tested, and the EC50 was < 500 nM.
For `COc1cc(C(=O)NC[C@@](O)(c2ccccc2)c2cc3c(c(-c4cc(F)c(F)cc4F)n2)OC[C@]3(C)C(N)=O)cc2cn(C3(F)CC3)nc12` [Example 170], the EC50 was < 500 nM.
With `COc1cc(C(=O)NC[C@](O)(c2cc3c(c(-c4ccc5c(c4)OC(F)(F)O5)n2)OC[C@]3(C)C(N)=O)C2CC2)cc2cc(C)c(F)nc12` [Example 22] the EC50 was < 500 nM.
In the case of `COc1cc(C(=O)NC[C@@](O)(c2ccccc2)c2cc3c(c(-c4ccc5c(c4)OC(F)(F)O5)n2)OC[C@]3(C)C(N)=O)cc2cn(C3CC3)nc12` [Example 18], the EC50 is reported as < 500 nM.
`COc1cc(C(=O)NC[C@@](O)(c2ccccc2)c2cc3c(c(-c4cc(C(F)(F)F)ccc4F)n2)OC[C@]3(C)C(N)=O)cc2cn(C3CC3)nc12` [Example 147] was tested, and the EC50 was < 500 nM.
With `COc1cc(C(=O)NC[C@@](O)(c2ccccc2)c2cc3c(c(-c4cc(Cl)c(F)cc4F)n2)OC[C@]3(C)C(N)=O)cc2cc(Cl)cnc12` [Example 187] the EC50 was < 500 nM.
In the case of `COc1cc(C(=O)NC[C@](O)(c2cc3c(c(-c4cc(Cl)c(F)cc4F)n2)OC[C@]3(C)C(N)=O)C2CC2)cn2cc(C3CC3)nc12` [Example 77], the EC50 is reported as < 500 nM.
With `COc1cc(C(=O)NC[C@@](O)(c2ccccc2)c2cc3c(c(-c4cc(F)c(F)cc4F)n2)OC[C@]3(C)C(N)=O)cc2cn(C(F)F)nc12` [Example 172] the EC50 was < 500 nM.
In the case of `COc1cc(C(=O)NC[C@@](O)(c2cccnc2)c2cc3c(c(-c4cc(Cl)c(F)cc4F)n2)OC[C@]3(C)C(N)=O)cc2cn(C3CC3)nc12` [Example 131], the EC50 is reported as < 500 nM.
In the case of `COc1cc(C(=O)NC[C@@](O)(c2cccc(F)c2)c2cc3c(c(-c4cc(Cl)c(F)cc4F)n2)OC[C@]3(C)C(N)=O)cc2cn(C3CC3)nc12` [Example 132], the EC50 is reported as < 500 nM.
With `COc1cc(C(=O)NC[C@](O)(c2cc3c(c(-c4ccc(F)c(Cl)c4Cl)n2)OC[C@]3(C)C(N)=O)C(F)(F)F)cc2cn(C(F)F)nc12` [Example 66] the EC50 was < 500 nM.
In the case of `COc1cc(C(=O)NC[C@@](O)(c2cccc(F)c2)c2cc3c(c(-c4cccc(Cl)c4Cl)n2)OC[C@]3(C)C(N)=O)cc2oc(C3CC3)nc12` [Example 292], the EC50 is reported as < 500 nM.
With `COc1cc(C(=O)NC[C@@](O)(c2cccc(F)c2)c2cc3c(c(-c4cccc(Cl)c4Cl)n2)OC[C@]3(C)C(N)=O)cc2oc(C)nc12` [Example 293] the EC50 was < 500 nM.
For `C[C@@H](O)COc1cc(C(=O)NC[C@](O)(c2cc3c(c(-c4ccc(F)c(Cl)c4F)n2)OC[C@]3(C)C(N)=O)C2CC2)cc2cn(C3CC3)nc12` [Example 38], the EC50 was > 500 nM.
For `COc1cc(C(=O)NC[C@@](O)(c2cccc(F)c2)c2cc3c(c(-c4cc(C(F)(F)F)c(F)cc4F)n2)OC[C@]3(C)C(N)=O)cc2cn(C3(F)CC3)nc12` [Example 296], the EC50 was < 500 nM.
`COc1cc(C(=O)NC[C@@](O)(c2cccc(F)c2)c2cc3c(c(-c4cc(C(F)(F)F)c(F)cc4F)n2)OC[C@]3(C)C(N)=O)cc2cn(C3CC3)nc12` [Example 295] was tested, and the EC50 was < 500 nM.
For `COc1cc(C(=O)NC[C@@](O)(c2ccccc2)c2cc3c(c(-c4ccc(F)c(Cl)c4Cl)n2)OC[C@]3(C)C(N)=O)cc2cn(C(F)F)nc12` [Example 258], the EC50 was < 500 nM.
For `COc1cc(C(=O)NC[C@@](O)(c2cccc(F)c2)c2cc3c(c(-c4ccc5c(c4Cl)OC(F)(F)O5)n2)OC[C@]3(C)C(N)=O)cc2cn(C(F)F)nc12` [Example 276], the EC50 was < 500 nM.
In the case of `COc1cc(C(=O)NC[C@@](O)(c2cccc(F)c2)c2cc3c(c(-c4cc(C(F)(F)F)c(F)cc4F)n2)OC[C@]3(C)C(N)=O)cc2oc(C3CC3)nc12` [Example 297], the EC50 is reported as < 500 nM.
For `C[C@]1(C(N)=O)COc2c1cc([C@@](O)(CNC(=O)c1cc(OC3CC3)c3nn(C(F)F)cc3c1)C1CC(F)(F)C1)nc2-c1cc(F)c(F)cc1F` [Example 34], the EC50 was < 500 nM.
In the case of `COc1cc(C(=O)NC[C@](O)(c2cc3c(c(-c4ccc(F)c(Cl)c4Cl)n2)OC[C@]3(C)C(N)=O)C(F)(F)F)cc2cn(C3CC3)nc12` [Example 65], the EC50 is reported as < 500 nM.
In the case of `COc1cc(C(=O)NC[C@@](O)(c2ccc(F)cc2)c2cc3c(c(-c4ccc5c(c4Cl)OC(F)(F)O5)n2)OC[C@]3(C)C(N)=O)cc2cn(C3(F)CC3)nc12` [Example 263], the EC50 is reported as < 500 nM.
